pKi: −log10 of the molar value.
Legend:
[1] = target: 5-hydroxytryptamine receptor 2A (Rattus norvegicus, UniProt P14842)
D(2) dopamine receptor = D(2) dopamine receptor (Rattus norvegicus, UniProt P61169)
Chain of D(2) dopamine receptor (P61169 whole entry): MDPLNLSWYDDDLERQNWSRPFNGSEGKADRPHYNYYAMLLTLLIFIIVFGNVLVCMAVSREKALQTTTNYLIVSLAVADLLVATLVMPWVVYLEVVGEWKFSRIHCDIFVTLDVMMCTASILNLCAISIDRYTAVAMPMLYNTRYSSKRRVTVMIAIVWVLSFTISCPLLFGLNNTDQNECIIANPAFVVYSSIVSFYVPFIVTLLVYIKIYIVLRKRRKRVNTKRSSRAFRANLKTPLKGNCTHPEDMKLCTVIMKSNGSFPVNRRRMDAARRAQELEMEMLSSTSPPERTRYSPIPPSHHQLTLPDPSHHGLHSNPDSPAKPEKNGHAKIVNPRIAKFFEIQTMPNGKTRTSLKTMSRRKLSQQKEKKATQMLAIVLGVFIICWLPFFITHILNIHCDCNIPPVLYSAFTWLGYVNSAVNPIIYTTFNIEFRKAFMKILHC

Chain of 5-hydroxytryptamine receptor 2A (P14842 whole entry): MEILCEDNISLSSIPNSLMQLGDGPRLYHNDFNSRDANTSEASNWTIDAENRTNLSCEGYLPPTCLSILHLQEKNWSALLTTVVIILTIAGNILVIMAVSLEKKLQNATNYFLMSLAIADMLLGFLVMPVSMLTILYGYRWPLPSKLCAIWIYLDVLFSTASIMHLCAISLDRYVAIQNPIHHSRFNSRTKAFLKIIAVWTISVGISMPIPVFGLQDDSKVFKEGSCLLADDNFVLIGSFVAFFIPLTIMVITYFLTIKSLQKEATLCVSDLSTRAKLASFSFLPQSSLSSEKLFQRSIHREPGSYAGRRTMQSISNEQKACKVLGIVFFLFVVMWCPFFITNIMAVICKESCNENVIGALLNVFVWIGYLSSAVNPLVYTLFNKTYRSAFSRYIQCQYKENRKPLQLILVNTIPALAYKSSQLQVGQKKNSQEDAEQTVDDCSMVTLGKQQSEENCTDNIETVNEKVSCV

- pKi [1]: 11.00
- pKi (D(2) dopamine receptor): 11.00
SMILES: Cc1[nH]cnc1CC1CCc2c(C)c3ccccc3n2C1=O (configuration not stated) [CAS_125368]

— BindingDB's records for PubMed 8496821 (Fujisawa Pharmaceutical, 1993)
